These results are taken from article PMC12062876, “Efficient constitution of a library of rotenoid analogs active against Trypanosoma cruzi from a digitalized plant extract collection” (RSC Advances, 2025).

Like-named read-outs stand apart in the source and are kept apart here.

The test system of series [1] is T. cruzi amastigotes. Nature of the series: Activity against intracellular T. cruzi amastigotes. Particulars: for Selectivity index: SI = IC50 cytotoxicity/IC50 against T. cruzi; for IC50: Trypanosoma cruzi, read-out: IC50 T. cruzi amastigotes; for activity against T. cruzi (in words): intracellular amastigotes. Format: cell-based, Trypanosoma cruzi. An excerpt:
The bioactivity of isolated compounds against intracellular T. cruzi amastigotes grown in rat L6 […] is presented in Table 1. […] Rotenone and deguelin are known to be strong mitochondrial complex I (also known as NADH:ubiquinone oxidoreductase) inhibitors,[43–45] while different activities between closely related rotenoids (rotenone, 5′-α-epirotenone, and 5′-β-epirotenone) has already been shown. […] The variation in activity observed on our rapidly generated series of structural analogs points in the same direction. As shown in Fig. 3 and Table 1, the cyclic and bent form of the rotenoid at the B/C ring junction is essential for activity, since compounds 40 and 41 were not active.
The pure compounds activity was assessed against T. cruzi amastigotes as described in ref. [27].

Series [2] is described as follows: Cytotoxicity assay: L-6 cells. It is filed as cell-based. As to conditions: rat skeletal myoblast (L6 cells); means of two independent assays. As for the experimental part:
The pure compounds cytotoxicity was assessed against L6 cells as described in ref. [27].

Setting [3] is: intracellular amastigotes grown in rat L6 cells, means of two independent assays.

The IC50 is the concentration that inhibits the measured activity by half.

For `COc1cc2c(cc1OC)[C@@H]1C(=O)c3cc4ccoc4cc3O[C@@H]1CO2` (relative stereo) [Compound 32, erosone], the Selectivity index in series [1] stood at 2.9. Besides, the IC50 in series [1] (setting [3]) amounted to 39.3 µM; in series [2], 115 µM.

As for `O=c1cc(-c2ccccc2)oc2c1ccc1occc12` [Compound 10, lanceolatin B], the Selectivity index in series [1] is 13.6. Besides, the IC50 came out at 9.58 µM in series [1] (L6, in Rattus norvegicus) and 130 µM in series [2].

Regarding `COc1cc2c(cc1OC)[C@]1(O)C(=O)c3ccc4c(c3O[C@@H]1CO2)C=CC(C)(C)O4` [Compound 38, tephrosin], the Selectivity index in series [1] came to 1937.0. Also, the IC50 in series [1] (L6, in Rattus norvegicus) came to 0.04 µM; in series [2], 72.4 µM.

Regarding `COc1c(C(=O)/C=C(\O)c2ccccc2)ccc2occc12` [Compound 8, pongamol], the Selectivity index in series [1] is reported as 2.7. The concentration for half-maximal inhibition (IC50) in series [1] (setting [3]) came to 26.8 µM; in series [2] it was 73.6 µM.

`COc1cc2c(cc1OC)[C@]1(O)[C@H](OC(C)=O)c3ccc4occc4c3O[C@@H]1CO2` (relative stereo) [Compound 33, 12-deoxo-12α-acetoxy-12a-β-hydroxyelliptone] gave a Selectivity index in series [1] of 1.5. Besides, the half-maximal inhibitory concentration (IC50) in series [1] (setting [3]) came out at 65.1 µM; in series [2], 98.2 µM.

On to `COc1ccc(-c2coc3c4c(cc(O)c3c2=O)OC(C)(C)C=C4)cc1O` [Compound 41, 3′-hydroxy-4′-O-metyhlerrone], for which, in series [1], the Selectivity index amounted to 6.9 and the “activity against T. cruzi (in words)” value is “not active”. Further, the concentration for half-maximal inhibition (IC50) in series [1] (setting [3]) amounted to 8.04 µM. It took 55.7 µM to reach half-maximal inhibition in series [2] (IC50).

For `COc1cc(O)ccc1C1COc2cc3c(cc2C1)CC(C(C)(C)O)O3` (stereo not shown) [Compound 6, 4-(2-(2-hydroxypropan-2-yl)-2,3,6,7-tetrahydro-5H-furo[3,2-g]chromen-6-yl)-3-methoxyphenol], the Selectivity index in series [1] worked out at 0.8. Also, the IC50 in series [1] (setting [3]) came out at 203 µM; in series [2], 154 µM.

The compound `CC(=O)OC1C2c3c(ccc4c3OC(c3ccccc3)CC4=O)OC2OC1(C)C` (single isomer, unassigned; (-)) [Compound 11, (−)-purpurin] displayed a Selectivity index in series [1] of 3.5. The values for the 50% inhibitory concentration (IC50) in series [1] (setting [3]) and in series [2] were 1.78 µM and 6.25 µM, respectively.

`COc1cc([C@@H]2c3cc4c(cc3[C@H](O)[C@H]3COC(=O)[C@H]23)OCO4)cc(OC)c1OC` [Podophyllotoxin, reference compound] yielded an IC50 in series [2] of 0.02 µM.

For `COc1cc2c(cc1C1COc3cc(O)ccc3C1)OCO2` (stereo not shown) [Compound 5, astraciceran], the Selectivity index in series [1] worked out at 0.8. The 50% inhibitory concentration (IC50) in series [1] (setting [3]) was found to be 94.1 µM; in series [2] it was 75.4 µM.

`CC(C)=CCc1c(O)cc2occ(-c3ccc(O)cc3)c(=O)c2c1O` [Compound 27, wighteone] showed a Selectivity index in series [1] of 2.2. For the same compound, the IC50 worked out at 46.6 µM in series [1] (setting [3]) and 104 µM in series [2].

In series [1], `COc1cc2c(cc1-c1coc3cc4occc4cc3c1=O)OCO2` [Compound 28, dehydroneotenone] came in with a Selectivity index of 5.1. The IC50 was found to be 3.59 µM in series [1] (setting [3]) and 18.3 µM in series [2].

As for `COc1ccc(-c2coc3cc(OC)c(O)cc3c2=O)cc1` [Compound 25, alfalone], in series [1], the Selectivity index is listed as 1.1. Also, the concentration for half-maximal inhibition (IC50) stood at 241 µM in series [1] (setting [3]) and 263 µM in series [2].

In the case of `COc1cc(O)ccc1[C@@H]1COc2cc(O)c(CC=C(C)C)cc2C1` [Compound 1, 2′-O-methylmanuifolin H], in series [1], the Selectivity index was 3.5. In addition, the figures for the IC50 in series [1] (setting [3]) and in series [2] were 28.2 µM and 99 µM, respectively.

In turn, `CC(=O)OC(C1COc2ccc3c(c21)OC(c1ccccc1)CC3=O)C(C)(C)O` (stereo not shown) [Compound 13, 2-hydroxy-2-methyl-1-(4-oxo-2-phenyl-3,4,8,9-tetrahydro-2H-furo[2,3-h]chromen-9-yl)propyl acetate] came in with a Selectivity index in series [1] of 1.1. For the same compound, the figures for the IC50 in series [1] (setting [3]) and in series [2] were 123 µM and 131 µM, respectively.

Compound `CC(C)=CCc1cc2c(cc1O)OCC(c1ccc(O)cc1)C2O` (stereo not shown) [Compound 2, bavaisoflavanol] came in with a Selectivity index in series [1] of 1.1. Also, the values for the IC50 in series [1] (setting [3]) and in series [2] were 43.1 µM and 49.5 µM, respectively.

For `Oc1ccc2c(c1)OC[C@H]1c3cc4c(cc3O[C@@H]21)OCO4` [Compound 16, maackiain], the Selectivity index in series [1] was found to be 1.3. Besides, the figures for the half-maximal inhibitory concentration (IC50) in series [1] (setting [3]) and in series [2] were 119 µM and 156 µM, respectively.

For `CC(C)=CCc1c(O)ccc(C(=O)/C=C/c2ccc(O)cc2)c1O` [Compound 7, isobavachalcone], the Selectivity index in series [1] came to 1.7. Besides, the IC50 in series [1] (setting [3]) is 60.1 µM; in series [2] it was 104 µM.

Consider `COc1cc2c(cc1OC)[C@]1(O)C(=O)c3ccc4occc4c3O[C@@H]1CO2` [Compound 36, 12a-hydroxyelliptone], for which, in series [1], the Selectivity index stood at 18.5. Besides, the figures for the IC50 in series [1] (setting [3]) and in series [2] were 5.42 µM and 100 µM, respectively.

`COc1cc(O)ccc1C1COc2cc(O)ccc2C1` (stereo not shown) [Compound 4, 7,4′-dihydroxy-2′-methoxyisoflavan] gave a Selectivity index in series [1] of 1.4. Besides, the 50% inhibitory concentration (IC50) was determined as 247 µM in series [1] (setting [3]) and 358 µM in series [2].

`C=C(C)[C@H]1Cc2cc3c(cc2O1)oc(=O)c1c2cc4c(cc2oc31)OCO4` [Compound 19, tephcalostan] had a Selectivity index in series [1] of 1.8. Further, the IC50 in series [1] (setting [3]) was 65.6 µM; in series [2], 119 µM.

`COc1c(-c2coc3cc4c(cc3c2=O)C=CC(C)(C)O4)ccc2c1C=CC(C)(C)O2` [Compound 23, munetone] yielded a Selectivity index in series [1] of 5.3. Further, the IC50 stood at 7.35 µM in series [1] (setting [3]) and 38.8 µM in series [2].

Turning to `CC(C)(O)C(OC(=O)C=Cc1ccccc1)C1COc2ccc3c(c21)OC(c1ccccc1)CC3=O` (stereo not shown) [Compound 14, 2-hydroxy-2-methyl-1-(4-oxo-2-phenyl-3,4,8,9-tetrahydro-2H-furo[2,3-h]chromen-9-yl)propyl cinnamate], the Selectivity index in series [1] is listed as 5.1. Moreover, the IC50 in series [1] (setting [3]) was 16 µM; in series [2] it was 81.6 µM.

`C=C(CO)C1Cc2cc3c(cc2O1)OCC1c2cc4c(cc2OC31)OCO4` (stereo not drawn) [Compound 18, (2′R)-4′-hydroxyemoroidocarpan] yielded a Selectivity index in series [1] of 2.9. The IC50 in series [1] (setting [3]) came to 40.1 µM; in series [2], 118 µM.

In series [1], `COc1cc2occ(-c3ccc4c(c3)OCO4)c(=O)c2cc1O` [Compound 24, acicerone] came in with a Selectivity index of 2.1. In addition, the IC50 was 86.8 µM in series [1] (setting [3]) and 186 µM in series [2].

In series [1], `COc1cc2c(cc1OC)C1C(CO2)Oc2c(ccc3occc23)C1OC(C)=O` (stereo not drawn) [Compound 34, 12-deoxo-12α-acetoxyelliptone] came in with a Selectivity index of 3.8. For the same compound, the IC50 in series [1] (setting [3]) was 27.1 µM; in series [2], 104 µM.

With `COc1c2c(cc3ccoc13)C(=O)[C@@]1(O)c3cc4c(cc3OC[C@H]1O2)OCO4` (relative stereo) [Compound 29, 12a-hydroxypachyrhizone], the Selectivity index in series [1] was determined as 1.3. For the same compound, the IC50 in series [1] (setting [3]) was found to be 93.2 µM; in series [2], 125 µM.

On to `CC1(C)C=Cc2c(ccc3c(=O)c(-c4cc(O)c5c(c4)OCO5)coc23)O1` [Compound 40, norisojamaicin], for which the Selectivity index in series [1] came out at 5.7. Further, the results for the half-maximal inhibitory concentration (IC50) in series [1] (setting [3]) and in series [2] were 21.8 µM and 123 µM, respectively. In series [1], the “activity against T. cruzi (in words)” value is “not active”.

In series [1], `CC1(C)C=Cc2c(ccc(-c3coc4cc(O)ccc4c3=O)c2O)O1` [Compound 20, glabrone] gave a Selectivity index of 1.2. In addition, the results for the IC50 in series [1] (setting [3]) and in series [2] were 149 µM and 186 µM, respectively.

Take `C=C(C)/C=C/c1c(OC)ccc2c1OC(c1ccccc1)CC2=O` (stereo not shown) [Compound 9, dehydroisoderricin]: the Selectivity index in series [1] is listed as 1.4. Moreover, the figures for the IC50 in series [1] (setting [3]) and in series [2] were 66.2 µM and 95.4 µM, respectively.

In the case of `O=C(Cn1ccnc1[N+](=O)[O-])NCc1ccccc1` [Benznidazole, reference compound], the half-inhibitory concentration (IC50) in series [1] (setting [3]) is 3.14 µM.

As to `COc1cc2c(cc1OC)[C@]1(O)C(=O)c3cc4ccoc4cc3O[C@@H]1CO2` (relative stereo) [Compound 31, 12a-hydroxyerosone], in series [1], the Selectivity index is given as 5.7. Further, the values for the half-maximal inhibitory concentration (IC50) in series [1] (setting [3]) and in series [2] were 19.7 µM and 113 µM, respectively.

With `C=C(C)[C@H]1Cc2cc3c(cc2O1)OC[C@H]1c2cc4c(cc2O[C@@H]31)OCO4` [Compound 17, emoroidocarpan], the Selectivity index in series [1] came out at 1.8. The 50% inhibitory concentration (IC50) came to 47.8 µM in series [1] (setting [3]) and 84.8 µM in series [2].

Consider `COc1cc2c(cc1OC)[C@@H]1C(=O)c3ccc4occc4c3O[C@@H]1CO2` [Compound 35, elliptone], for which, in series [1], the Selectivity index is 5.4. Besides, the IC50 in series [1] (setting [3]) was 18.2 µM; in series [2], 99 µM.

On to `CC(C)=CCc1cc2c(cc1O)OC[C@@H](c1ccc(O)cc1O)C2` [Compound 3, manuifolin H], for which, in series [1], the Selectivity index was 3.7. In addition, the IC50 in series [1] (setting [3]) worked out at 28.3 µM; in series [2], 106 µM.

Compound `O=C1c2cc3ccoc3cc2O[C@@H]2COc3cc4c(cc3[C@]12O)OCO4` (relative stereo) [Compound 30, 12a-hydroxydolineone] yielded a Selectivity index in series [1] of 0.7. Further, the half-maximal inhibitory concentration (IC50) in series [1] (setting [3]) came out at 195 µM; in series [2] it was 141 µM.

`COc1ccc(-c2coc3cc(O)ccc3c2=O)cc1` [Compound 22, formononetin]: the Selectivity index in series [1] is 1.0. The figures for the IC50 in series [1] (setting [3]) and in series [2] were 217 µM and 224 µM, respectively.
